Data set [1] deals with human embryonic stem cell derived neural stem cells (NSCs). Briefly: Neural Stem Cell Proliferation Assay (neurogenesis assay, ATP levels by CellTiterGlo). The following applies: 96 h, compound concentration at which 150% activity of control (100%) is reached, NSC proliferation by ATP level after 4 days incubation, dose response 8 μM to 8 nM. The data set is classed as cell-based. An outline of the steps: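 Read-out is CellTiterGlo ATP luminescence after 4-day culture (37 °C, 5% CO2) of dual-SMAD-derived human ESC NSCs, dosed 4 h post-seeding at 8 μM to 8 nM (11 points, 2-fold). EC150 marks the concentration reaching 150% of the media-only control (0.25% DMSO).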
In general terms: In ATP-based viability assays light output follows the ATP content of the culture.

By melting point is commonly meant the temperature of the solid-liquid transition.

On to `Cc1c2n(c3c(-c4ccc(Cl)cc4F)cc(Cl)cc13)CCNC2=O` [Example 101, 8-Chloro-6-(4-chloro-2-fluoro-phenyl)-10-methyl-3,4-dihydro-2H-pyrazino[1,2-a]indol-1-one], for which the melting point came out at 251.5 °C. The same compound came in with an EC (150% of control) in data set [1] of 0.006 µM.

Consider `Cc1c2n(c3c(-c4ccc(Cl)cc4Cl)cc(Cl)cc13)CCNC2=O` [Example 102, 8-Chloro-6-(2,4-dichloro-phenyl)-10-methyl-3,4-dihydro-2H-pyrazino[1,2-a]indol-1-one], for which the melting point was found to be 213 °C. The same compound registered an EC (150% of control) in data set [1] of 0.009 µM.

`Cc1c2n(c3c(-c4ccc5c(c4)OCO5)cc(Cl)cc13)CCNC2=O` [Example 103, 6-Benzo[1,3]dioxol-5-yl-8-chloro-10-methyl-3,4-dihydro-2H-pyrazino[1,2-a]indol-1-one] came in with a melting point of 244.5 °C. The EC (150% of control) in data set [1] worked out at 0.018 µM.

The compound `Cc1c2n(c3c(-c4ccc(C#N)cc4)cc(Cl)cc13)CCNC2=O` [Example 104, 4-(8-Chloro-10-methyl-1-oxo-1,2,3,4-tetrahydro-pyrazino[1,2-a]indol-6-yl)-benzonitrile] gave a melting point of 290 °C. Further, the EC (150% of control) in data set [1] is 0.015 µM.

In turn, `Cc1ccc(-c2cc(Cl)cc3c(C)c4n(c23)CCNC4=O)cc1F` [Example 105, 8-Chloro-6-(3-fluoro-4-methyl-phenyl)-10-methyl-3,4-dihydro-2H-pyrazino[1,2-a]indol-1-one] displayed a melting point of 225 °C. Besides, the EC (150% of control) in data set [1] came out at 0.029 µM.

With `Cc1c2n(c3c(-c4ccc(C(C)C)cc4)cc(Cl)cc13)CCNC2=O` [Example 106, 8-Chloro-6-(4-isopropyl-phenyl)-10-methyl-3,4-dihydro-2H-pyrazino[1,2-a]indol-1-one], the melting point was 194.5 °C. In data set [1], the EC (150% of control) was 0.05 µM.

On to `Cc1c2n(c3c(-c4ccc(S(C)(=O)=O)cc4)cc(Cl)cc13)CCNC2=O` [Example 107, 8-Chloro-6-(4-methanesulfonyl-phenyl)-10-methyl-3,4-dihydro-2H-pyrazino[1,2-a]indol-1-one], for which the melting point was found to be 321.5 °C. The EC (150% of control) in data set [1] was determined as 0.027 µM.

Regarding `Cc1c2n(c3c(-c4ccnc(F)c4)cc(Cl)cc13)CCNC2=O` [Example 108, 8-Chloro-6-(2-fluoro-pyridin-4-yl)-10-methyl-3,4-dihydro-2H-pyrazino[1,2-a]indol-1-one], the melting point worked out at 290.5 °C. Also, the EC (150% of control) in data set [1] came to 0.021 µM.

With `Cc1c2n(c3c(-c4ccc([N+](=O)[O-])cc4)cc(Cl)cc13)CCNC2=O` [Example 109, 8-Chloro-10-methyl-6-(4-nitro-phenyl)-3,4-dihydro-2H-pyrazino[1,2-a]indol-1-one], the melting point stood at 313.5 °C. Besides, the EC (150% of control) in data set [1] came out at 0.007 µM.

`Cc1c2n(c3c(-c4ccc(CO)cc4)cc(Cl)cc13)CCNC2=O` [Example 110, 8-Chloro-6-(4-hydroxymethyl-phenyl)-10-methyl-3,4-dihydro-2H-pyrazino[1,2-a]indol-1-one] had a melting point of 211 °C. Further, the EC (150% of control) in data set [1] was 0.014 µM.

In turn, `COc1ccc(-c2cc(Cl)cc3c(C)c4n(c23)CCNC4=O)cn1` [Example 111, 8-Chloro-6-(6-methoxy-pyridin-3-yl)-10-methyl-3,4-dihydro-2H-pyrazino[1,2-a]indol-1-one] returned a melting point of 196 °C. This compound came in with an EC (150% of control) in data set [1] of 0.015 µM.

As for `Cc1c2n(c3c(-c4ccc(Cl)nc4)cc(Cl)cc13)CCNC2=O` [Example 112, 8-Chloro-6-(6-chloro-pyridin-3-yl)-10-methyl-3,4-dihydro-2H-pyrazino[1,2-a]indol-1-one], the melting point was determined as 276 °C. In data set [1], this compound gave an EC (150% of control) of 0.012 µM.

Take `Cc1c2n(c3c(-c4ccc(N(C)C)cc4)cc(Cl)cc13)CCNC2=O` [Example 113, 8-Chloro-6-(4-dimethylamino-phenyl)-10-methyl-3,4-dihydro-2H-pyrazino[1,2-a]indol-1-one]: the melting point came out at 227 °C. Also, the EC (150% of control) in data set [1] is 0.01 µM.

For `Cc1c2n(c3c(-c4ccc(F)nc4)cc(Cl)cc13)CCNC2=O` [Example 114, 8-Chloro-6-(6-fluoro-pyridin-3-yl)-10-methyl-3,4-dihydro-2H-pyrazino[1,2-a]indol-1-one], the melting point is 270 °C. This compound also displayed an EC (150% of control) in data set [1] of 0.04 µM.

Turning to `Cc1c2n(c3c(-c4cccc(Cl)c4)cc(Cl)cc13)CCNC2=O` [Example 115, 8-Chloro-6-(3-chloro-phenyl)-10-methyl-3,4-dihydro-2H-pyrazino[1,2-a]indol-1-one], the melting point amounted to 218.5 °C. In addition, the EC (150% of control) in data set [1] worked out at 0.43 µM.

As to `Cc1c2n(c3c(-c4ccc5c(c4)CCO5)cc(Cl)cc13)CCNC2=O` [Example 116, 8-Chloro-6-(2,3-dihydro-benzofuran-5-yl)-10-methyl-3,4-dihydro-2H-pyrazino[1,2-a]indol-1-one], the melting point came to 261 °C. In data set [1], this compound gave an EC (150% of control) of 0.055 µM.

As to `Cc1c2n(c3c(-c4cccc(C#N)c4)cc(Cl)cc13)CCNC2=O` [Example 117, 3-(8-Chloro-10-methyl-1-oxo-1,2,3,4-tetrahydro-pyrazino[1,2-a]indol-6-yl)-benzonitrile], the melting point was found to be 199 °C. Further, in data set [1], the EC (150% of control) was determined as 0.4 µM.

Compound `Cc1c2n(c3c(-c4ccc(C(C)(C)C)cc4)cc(Cl)cc13)CCNC2=O` [Example 118, 6-(4-tert-Butyl-phenyl)-8-chloro-10-methyl-3,4-dihydro-2H-pyrazino[1,2-a]indol-1-one] yielded a melting point of 252 °C. Moreover, the EC (150% of control) in data set [1] was determined as 0.15 µM.

With `Cc1c2n(c3c(-c4ccnc(Cl)c4)cc(Cl)cc13)CCNC2=O` [Example 119, 8-Chloro-6-(2-chloro-pyridin-4-yl)-10-methyl-3,4-dihydro-2H-pyrazino[1,2-a]indol-1-one], the melting point worked out at 270 °C. The compound also gave an EC (150% of control) in data set [1] of 0.16 µM.

In the case of `Cc1c2n(c3c(-c4ccc(Cl)cc4Cl)cc(F)cc13)CCNC2=O` [Example 120, 6-(2,4-Dichloro-phenyl)-8-fluoro-10-methyl-3,4-dihydro-2H-pyrazino[1,2-a]indol-1-one], the melting point was found to be 214 °C. Also, the EC (150% of control) in data set [1] turned out to be 0.01 µM.

As to `Cc1c2n(c3c(-c4ccc(Cl)cc4F)cc(F)cc13)CCNC2=O` [Example 121, 6-(4-Chloro-2-fluoro-phenyl)-8-fluoro-10-methyl-3,4-dihydro-2H-pyrazino[1,2-a]indol-1-one], the melting point amounted to 221 °C. In data set [1], this compound yielded an EC (150% of control) of 0.01 µM.

Compound `Cc1c2n(c3c(-c4ccc(F)cc4F)cc(F)cc13)CCNC2=O` [Example 122, 6-(2,4-Difluoro-phenyl)-8-fluoro-10-methyl-3,4-dihydro-2H-pyrazino[1,2-a]indol-1-one] came in with a melting point of 204 °C. The EC (150% of control) in data set [1] was 0.013 µM.

`Cc1c2n(c3c(-c4ccc5c(c4)OCO5)cc(F)cc13)CCNC2=O` [Example 123, 6-Benzo[1,3]dioxol-5-yl-8-fluoro-10-methyl-3,4-dihydro-2H-pyrazino[1,2-a]indol-1-one] registered a melting point of 206 °C. The EC (150% of control) in data set [1] came to 0.031 µM.

Source of the values: patent US9284321B2, “Piperazino[1,2-a]indol-1-ones and [1,4]diazepino[1,2-a]indol-1-one” (Hoffmann-La Roche Inc., priority 2012, dated 2016).
